Reference: the supplement of paper PMC10307832

Assays:
Experiment in all cases: relative viability (nuclei count vs DMSO), 5 days (fraction); higher = more cells survive
[1] = compound: C1/C(=C\C2=CC=CS2)/C(=O)/C(=C/C3=CC=CS3)/C1 + COc1cc2c(Oc3ccc(NC(=O)C4(C(=O)Nc5ccc(F)cc5)CC4)cc3F)ccnc2cc1OCCCN1CCOCC1 [Foretinib] (partner 0.25 µM)
How it was run: (§1)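 Lung cancer cell lines, seeded in 1536-well plates, were treated the following day by pin tool with a single drug or with five library-drug doses (not always all listed) in √10 steps on top of a fixed anchor-drug dose. Cells were fixed and nuclei stained in one step after 5 days, and nuclei were counted. Relative viability is the nuclei count for treated wells divided by that for vehicle wells, reported as medians of duplicate plates.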

[2] = compound: C1=CC(=CC=C1C2=CC(=C(S2)NC(=O)N)C(=O)N)F [TPCA-1] + Cc1cc(Nc2cc(N3CCN(C)CC3)nc(Sc3ccc(NC(=O)C4CC4)cc3)n2)n[nH]1 [Tozasertib] (partner 0.1 µM)
How it was run: as §1

[3] = compound: C1/C(=C\C2=CC=CS2)/C(=O)/C(=C/C3=CC=CS3)/C1 + CC(C)C[C@H](NC(=O)[C@H](Cc1ccccc1)NC(=O)c1cnccn1)B(O)O [Bortezomib] (partner 0.002 µM)
How it was run: as §1

[4] = compound: C[C@]12O[C@H](C[C@]1(O)CO)n1c3ccccc3c3c4c(c5c6ccccc6n2c5c31)CNC4=O [Lestaurtinib] + O=C(CCCCCCC(=O)Nc1ccccc1)NO [Vorinostat] (partner 1 µM)
How it was run: as §1

NCI-H2347
relative viability ([1]; first compound 0.2 µM): 0.703
relative viability ([1]; first compound 0.6325 µM): 1.1
relative viability ([1]; first compound 2 µM): 1.08
relative viability ([1]; first compound 6.325 µM): 0.729
relative viability ([1]; first compound 20 µM): 1.03
relative viability ([2]; first compound 0.04 µM): 0.527
relative viability ([2]; first compound 0.1265 µM): 0.52
relative viability ([2]; first compound 0.4 µM): 0.454
relative viability ([2]; first compound 1.265 µM): 0.599
relative viability ([2]; first compound 4 µM): 0.336
relative viability ([3]; first compound 0.2 µM): 0.847
relative viability ([3]; first compound 0.6325 µM): 1
relative viability ([3]; first compound 2 µM): 1.04
relative viability ([3]; first compound 6.325 µM): 0.831
relative viability ([3]; first compound 20 µM): 1.04
relative viability ([4]; first compound 0.005 µM): 0.508
relative viability ([4]; first compound 0.01581 µM): 0.643
relative viability ([4]; first compound 0.05 µM): 0.555
relative viability ([4]; first compound 0.1581 µM): 0.469
relative viability ([4]; first compound 0.5 µM): 0.503

NCI-H2405
relative viability ([1]; first compound 0.2 µM): 1.11
relative viability ([1]; first compound 0.6325 µM): 1.03
relative viability ([1]; first compound 2 µM): 1.17
relative viability ([1]; first compound 6.325 µM): 0.948
relative viability ([1]; first compound 20 µM): 1.12
relative viability ([2]; first compound 0.04 µM): 0.753
relative viability ([2]; first compound 0.1265 µM): 0.75
relative viability ([2]; first compound 0.4 µM): 0.765
relative viability ([2]; first compound 1.265 µM): 0.754
relative viability ([2]; first compound 4 µM): 0.555
relative viability ([3]; first compound 0.2 µM): 1.03
relative viability ([3]; first compound 0.6325 µM): 0.944
relative viability ([3]; first compound 2 µM): 1.01
relative viability ([3]; first compound 6.325 µM): 0.631
relative viability ([3]; first compound 20 µM): 1
relative viability ([4]; first compound 0.005 µM): 1.03
relative viability ([4]; first compound 0.01581 µM): 1.29
relative viability ([4]; first compound 0.05 µM): 0.88
relative viability ([4]; first compound 0.1581 µM): 0.938
relative viability ([4]; first compound 0.5 µM): 0.253

NCI-H3122
relative viability ([1]; first compound 0.2 µM): 1.01
relative viability ([1]; first compound 0.6325 µM): 0.934
relative viability ([1]; first compound 2 µM): 1
relative viability ([1]; first compound 6.325 µM): 0.81
relative viability ([1]; first compound 20 µM): 0.846
relative viability ([2]; first compound 0.04 µM): 0.465
relative viability ([2]; first compound 0.1265 µM): 0.37
relative viability ([2]; first compound 0.4 µM): 0.463
relative viability ([2]; first compound 1.265 µM): 0.329
relative viability ([2]; first compound 4 µM): 0.268
relative viability ([3]; first compound 0.2 µM): 1.04
relative viability ([3]; first compound 0.6325 µM): 1.02
relative viability ([3]; first compound 2 µM): 0.997
relative viability ([3]; first compound 6.325 µM): 1.03
relative viability ([3]; first compound 20 µM): 0.932
relative viability ([4]; first compound 0.005 µM): 1.16
relative viability ([4]; first compound 0.01581 µM): 1.11
relative viability ([4]; first compound 0.05 µM): 0.858
relative viability ([4]; first compound 0.1581 µM): 1.14
relative viability ([4]; first compound 0.5 µM): 0.442

PC-3 [JPC-3]
relative viability ([1]; first compound 0.2 µM): 1.11
relative viability ([1]; first compound 0.6325 µM): 1.05
relative viability ([1]; first compound 2 µM): 1.01
relative viability ([1]; first compound 6.325 µM): 0.865
relative viability ([1]; first compound 20 µM): 1.11
relative viability ([2]; first compound 0.04 µM): 0.869
relative viability ([2]; first compound 0.1265 µM): 0.874
relative viability ([2]; first compound 0.4 µM): 0.892
relative viability ([2]; first compound 1.265 µM): 0.848
relative viability ([2]; first compound 4 µM): 0.545
relative viability ([3]; first compound 0.2 µM): 0.845
relative viability ([3]; first compound 0.6325 µM): 0.956
relative viability ([3]; first compound 2 µM): 0.88
relative viability ([3]; first compound 6.325 µM): 0.76
relative viability ([3]; first compound 20 µM): 0.884
relative viability ([4]; first compound 0.005 µM): 0.644
relative viability ([4]; first compound 0.01581 µM): 1.15
relative viability ([4]; first compound 0.05 µM): 0.866
relative viability ([4]; first compound 0.1581 µM): 0.816
relative viability ([4]; first compound 0.5 µM): 0.469

PC-14
relative viability ([1]; first compound 0.2 µM): 0.942
relative viability ([1]; first compound 0.6325 µM): 0.932
relative viability ([1]; first compound 2 µM): 0.937
relative viability ([1]; first compound 6.325 µM): 0.847
relative viability ([1]; first compound 20 µM): 0.885
relative viability ([2]; first compound 0.04 µM): 0.587
relative viability ([2]; first compound 0.1265 µM): 0.55
relative viability ([2]; first compound 0.4 µM): 0.58
relative viability ([2]; first compound 1.265 µM): 0.585
relative viability ([2]; first compound 4 µM): 0.28
relative viability ([3]; first compound 0.2 µM): 0.904
relative viability ([3]; first compound 0.6325 µM): 0.763
relative viability ([3]; first compound 2 µM): 0.837
relative viability ([3]; first compound 6.325 µM): 0.742
relative viability ([3]; first compound 20 µM): 0.98
relative viability ([4]; first compound 0.005 µM): 0.718
relative viability ([4]; first compound 0.01581 µM): 0.558
relative viability ([4]; first compound 0.05 µM): 0.509
relative viability ([4]; first compound 0.1581 µM): 0.324
relative viability ([4]; first compound 0.5 µM): 0.0543

RERF-LC-KJ
relative viability ([1]; first compound 0.2 µM): 0.932
relative viability ([1]; first compound 0.6325 µM): 0.929
relative viability ([1]; first compound 2 µM): 0.866
relative viability ([1]; first compound 6.325 µM): 0.985
relative viability ([1]; first compound 20 µM): 0.808
relative viability ([2]; first compound 0.04 µM): 0.556
relative viability ([2]; first compound 0.1265 µM): 0.518
relative viability ([2]; first compound 0.4 µM): 0.61
relative viability ([2]; first compound 1.265 µM): 0.43
relative viability ([2]; first compound 4 µM): 0.29
relative viability ([3]; first compound 0.2 µM): 1.07
relative viability ([3]; first compound 0.6325 µM): 1.14
relative viability ([3]; first compound 2 µM): 1.04
relative viability ([3]; first compound 6.325 µM): 0.912
relative viability ([3]; first compound 20 µM): 1.13
relative viability ([4]; first compound 0.005 µM): 0.56
relative viability ([4]; first compound 0.01581 µM): 0.683
relative viability ([4]; first compound 0.05 µM): 0.538
relative viability ([4]; first compound 0.1581 µM): 0.588
relative viability ([4]; first compound 0.5 µM): 0.375

SK-LU-1
relative viability ([1]; first compound 0.2 µM): 0.846
relative viability ([1]; first compound 0.6325 µM): 0.85
relative viability ([1]; first compound 2 µM): 0.937
relative viability ([1]; first compound 6.325 µM): 0.795
relative viability ([1]; first compound 20 µM): 0.831
relative viability ([2]; first compound 0.04 µM): 0.333
relative viability ([2]; first compound 0.1265 µM): 0.297
relative viability ([2]; first compound 0.4 µM): 0.309
relative viability ([2]; first compound 1.265 µM): 0.253
relative viability ([2]; first compound 4 µM): 0.248
relative viability ([3]; first compound 0.2 µM): 1.33
relative viability ([3]; first compound 0.6325 µM): 1.07
relative viability ([3]; first compound 2 µM): 1.68
relative viability ([3]; first compound 6.325 µM): 1.13
relative viability ([3]; first compound 20 µM): 1.28
relative viability ([4]; first compound 0.005 µM): 0.668
relative viability ([4]; first compound 0.01581 µM): 0.667
relative viability ([4]; first compound 0.05 µM): 0.491
relative viability ([4]; first compound 0.1581 µM): 0.415
relative viability ([4]; first compound 0.5 µM): 0.277

SW 1573
relative viability ([1]; first compound 0.2 µM): 0.879
relative viability ([1]; first compound 0.6325 µM): 0.965
relative viability ([1]; first compound 2 µM): 0.939
relative viability ([1]; first compound 6.325 µM): 0.843
relative viability ([1]; first compound 20 µM): 0.825
relative viability ([2]; first compound 0.04 µM): 0.189
relative viability ([2]; first compound 0.1265 µM): 0.162
relative viability ([2]; first compound 0.4 µM): 0.181
relative viability ([2]; first compound 1.265 µM): 0.132
relative viability ([2]; first compound 4 µM): 0.135
relative viability ([3]; first compound 0.2 µM): 0.985
relative viability ([3]; first compound 0.6325 µM): 1
relative viability ([3]; first compound 2 µM): 1.09
relative viability ([3]; first compound 6.325 µM): 0.834
relative viability ([3]; first compound 20 µM): 0.949
relative viability ([4]; first compound 0.005 µM): 0.767
relative viability ([4]; first compound 0.01581 µM): 0.864
relative viability ([4]; first compound 0.05 µM): 0.488
relative viability ([4]; first compound 0.1581 µM): 0.424
relative viability ([4]; first compound 0.5 µM): 0.198
